Laboratory results as given in patent US20190367558A1, “ANTIBODY/DRUG CONJUGATES AND METHODS OF USE” (ESPERANCE PHARMACEUTICALS, INC., priority 2012, published 2019).
Entries after “also recorded” stand apart in the source; their conditions may differ. Where two headings read alike, the source gives them in different places.

Legend:
Type in all cases: cell-based, human
[1] = test system: Daudi (CD20 positive Non-Hodgkin's lymphoma cells); assay: Membrane integrity, Cytotox Glo luminometric assay (Examples 12, 16, 19, 20, 22); settings: membrane integrity
Protocol: (§1) Naked antibody anti-CD20-IgG1-Phor18 were chemically conjugated (MS4A and AT80), Mw app.158,000 g/mol at a concentrations of 0.34 mg/ml (MS4A-Phor18) and 0.76 mg/ml (AT-80-Phor18). Cell lines were obtained at the American Type Cell Collection (Mannassas, Va.). Human Non-Hodgkin's lymphoma cells Daudi (CD20 positive, passage number p2), Raji (CD20 positive p 2) and human leukemia cell line U937 (CD20 negative, p 10) were seeded at a density of 3,000 cells per well in opaque plates in heat inactivated full medium. After 24 hours cells were replenished with fresh media (75 μl) and incubated with 25 μl of a 4× serial dilution of MS4A1-Phor18 and AT80-Phor18 of 0.001, 0.01, 0.1, 1, 10, 100 and 500 nM (N=6). Cells incubated for 2-5 hours were assayed for membrane integrity using a luminometric assay kit (Promega, Madison, Wis., Cytotox Glo G9292 lot #301329). Cell viability was determined was determined after 24, and 48 hours using a luminescent assay kit (Promega, Madison, Wis., Cell Titer Glo, G 7572, lot 30068102).
(§2) The concentration of each naked antibody fragment and ADC was determined according to Bradford. Naked antibody scFv Mw 27,088 g/mol at a concentration of 0.3 mg/ml, minibody Mw 78,988 g/mol, 0.231 mg/ml; Phor 18 conjugated antibodies were scFv-Phor18 (Mw 29,349 g/mol, 0.9 mg/ml) and minibody-Phor18 (Mw 93,515, 0.48 mg/ml). Cell lines were obtained at the American Type Cell Collection (Mannassas, Va.). Human Non-Hodgkin's lymphoma cells Daudi (CD20 positive, passage number p8) and human leukemia cell line U937 (CD20 negative, p 16) were seeded at a density of 2,000 cells per well in opaque plates in heat inactivated full medium. After 24 hours cells were replenished with fresh media (75 μl) and incubated with 25 μl of a 4× serial dilution of scFv-Phor18 and minibody-Phor18 ADC and naked antibody fragment (scFv and minibody) prepared in cell culture media were added at concentrations of 0.0001, 0.001, 0.01, 0.1, 1, 10, 100, 200, and 500 nM (N=6). Cells incubated for 4 hours were assayed for membrane integrity using a luminometric assay kit (Promega, Madison, Wis., Cytotox Glo G9292 lot #301329). Cell viability was determined was determined after 24, 48 and 72 hours using a luminescent assay kit (Promega, Madison, Wis., Cell Titer Glo, G 7572, lot 30062102).
(§3) Controls for 100% cell viability (culture media) and 100% cell death (0.1% Triton X 100) incubated under the same conditions.
(§4) Data were processed and analyzed to obtain IC50 values using Graph Pad Prizm version 5.00 for Windows, GraphPad Software, San Diego Calif. USA, www-graphpad-com (Graph Pad Prizm, Inc). Statistical analysis for significance was determined by a two-tailed Student's T-test. Each test was conducted using 2 plates with 2-3 wells each to achieve an N of 4-6 data points per time point.
(§5) The concentration of each naked antibody fragment and ADC was determined spectrophotometrically (OD280). Naked antibody scFv-Fc Mw 52,562 g/mol at a concentration of 1.1 mg/ml, Phor 18 conjugated antibodies were Phor18-VL-scFvFc (Mw 54,685 g/mol, 1.0 mg/ml), scFv-Fc-CH3-Phor18 (Mw 54,685 g/mol, 0.8 mg/ml). Human Non-Hodgkin's lymphoma cells Daudi (CD20 positive, passage number p7) and human leukemia cell line U937 (CD20 negative, p 6) were seeded at a density of 2,000 cells per well in opaque plates in heat inactivated full medium using cell dissociation buffer. After 24 hours cells were replenished with fresh media (75 μl) and incubated and incubated with 25 μl of a 4× serial dilution of each ADC and naked antibody prepared in cell culture media were added at concentrations of 0.01, 0.1, 1, 10, 100, 200 and 500 nM for scFvFc, Phor18-VL-scFvFc and scFv-Fc-CH3-Phor18.
(§6) Cells incubated for 4 hours were assayed for membrane integrity using a luminometric assay kit (Promega, Madison, Wis., Cytotox Glo G9292 lot #26229601). Cell viability was determined was determined after 24 hours using a luminescent assay kit (Promega, Madison, Wis., Cell Titer Glo, G 7572, lot 30731602). […]

[2] = test system: U937 (CD20 negative leukemia cell line); assay: Cell viability, Cell Titer Glo luminescent assay (Examples 12, 16, 19, 20, 22); settings: for IC50, U937 (CD20 negative) 2-46 h: U937, 2-46 h (membrane integrity and viability time points), Example 12; for IC50, U937 2-48 h: Example 16
Protocol: as §1, §2, §5
Cells incubated for 4 hours were assayed for membrane integrity using a luminometric assay kit (Promega, Madison, Wis., Cytotox Glo G9292 lot #26229601). Cell viability was determined was determined after 24 hours using a luminescent assay kit (Promega, Madison, Wis., Cell Titer Glo, G 7572, lot 30731602). Controls for 100% cell viability (culture media) and 100% cell death (0.1% Triton X 100) incubated under the same conditions.
Human Non-Hodgkin's lymphoma cells Daudi (CD20 positive, passage number p3) and human leukemia cell line U937 (CD20 negative, p 12) were seeded at a density of 2,000 cells per well in opaque plates in heat inactivated full medium using cell dissociation buffer. […]

[3] = test system: Daudi (CD20 positive Non-Hodgkin's lymphoma cells); assay: as above
Protocol: as §1, §2, §3, §4, §5, §6

[4] = test system: Raji (CD20 positive Non-Hodgkin's lymphoma cells); assay: Cell viability, Cell Titer Glo luminescent assay (Example 12)
Protocol: as §1

[5] = test system: Raji (CD20 positive Non-Hodgkin's lymphoma cells); assay: Membrane integrity, Cytotox Glo luminometric assay (Example 12)
Protocol: as §1

[6] = test system: caspase 3/7 in Daudi cells (CD20 positive); assay: Caspase 3/7 activation, Caspase Glo 3/7 luminometric assay (Examples 13, 17); settings: 5 hours; scFv-Phor18 or scFv at 5 and 15 μg/ml; Staurosporine 10 μM = 100%; Daudi (Raji also seeded)
Protocol: Human Non-Hodgkin's lymphoma cells Daudi (CD20 positive, passage number p2), were seeded at a density of 3,000 cells per well in opaque plates in heat inactivated full medium. After 24 hours cells were fed with fresh media (75 μl) and incubated with AT80-Phor18 (0.76 mg/ml) or naked antibody AT-80 of 15 and 75 μg/ml (100 and 500 nM) (N=6). Staurosporine at 10 μM served as positive control for caspase 3/7 activation. After 5 hours of incubatin cultures were assayed for caspase 3/7 levels using a luminometric assay kit (Promega, Madison, Wis., Caspase Glo 3/7 G811C lot #28731802).
Caspase 3/7 activation was calculated from relative light units from luminometric signals. Staurosporine was set at 100% caspase 3/7 activation, cell suspension alone without additions of reagents served as 0% caspase levels.
In in vitro studies, caspase activation of recombinantly expressed CD20 targeting scFv-Phor18 conjugate with “naked” antibody (scFv) in CD20 positive cells (Daudi Burkitt's lymphoma) was compared. Human Non-Hodgkin's lymphoma cells Daudi (CD20 positive, p 5) and Raji (CD20 positive, passage number p 3), were seeded at a density of 3,000 cells per well in opaque plates in heat inactivated full medium. […]
Relative caspase 3/7 activation was calculated from relative light units from luminometric signals. […]

[7] = Example 12, listed as MS4A1-Phor18
[8] = 46 h (text: 48 h / 46 hours), Example 16

**Q.** “Anti-CD20 MS4A1: naked anti-CD20 antibody MS4A1 (Rituximab Like, R&D) [reference compound]” was tested. Which “IC50, Daudi 2 h” value ([1]; Example 12) did it give?
**A.** Not toxic

**Q.** And the “IC50, Daudi 5 h” value ([1]; Example 12)?
**A.** Not toxic

**Q.** What about the “IC50, U937 (CD20 negative) 2-46 h” value [2] of the same molecule?
**A.** Not toxic

**Q.** And the “IC50, Daudi 24 h” value ([3]; 24 h, Example 12)?
**A.** Not toxic

**Q.** What about the “IC50, Daudi 46 h” value ([3]; 46 h (text: 48 h), Example 12) of the same molecule?
**A.** Not toxic

**Q.** What about the “IC50, Raji 24 h” value ([4]; 24 h) of the same molecule?
**A.** Not toxic

**Q.** What about the “IC50, Raji 46 h” value ([4]; 46 h (text: 48 h)) of the same molecule?
**A.** Not toxic

**Q.** How did the “IC50, Daudi 2 h” value ([1]; Example 12) turn out when Anti-CD20-Phor18 (MS4A1) was run?
**A.** Not toxic

**Q.** What about the “IC50, Daudi 2 h” value [1, 7] of the same molecule?
**A.** not active

**Q.** And the “IC50, Daudi 5 h” value ([1]; Example 12)?
**A.** Not toxic

**Q.** What about the “IC50, Daudi 5 h” value [1, 7] of the same molecule?
**A.** not active

**Q.** And the “IC50, U937 (CD20 negative) 2-46 h” value [2]?
**A.** Not toxic

**Q.** What about the IC50 ([3]; 24 h, Example 12, read-out: IC50, Daudi 24 h) of the same molecule?
**A.** 10.6 ± 2.1 nM

**Q.** And the IC50 ([3]; 46 h (text: 48 h), Example 12, read-out: IC50, Daudi 46 h)?
**A.** 3 ± 1.2 nM

**Q.** What about the IC50 ([4]; 24 h, listed as MS4A1-Phor18, read-out: IC50, Raji 24 h) of the same molecule?
**A.** 267 ± 13 nM

**Q.** And the IC50 ([4]; 24 h, read-out: IC50, Raji 24 h)?
**A.** 267 ± 13 nM

**Q.** And the IC50 ([4]; 46 h (text: 48 h), read-out: IC50, Raji 46 h)?
**A.** 227 ± 11 nM

**Q.** And the “IC50, Raji 2 h” value ([5]; 2 h)?
**A.** not active

**Q.** What about the “IC50, Raji 5 h” value ([5]; 5 h) of the same molecule?
**A.** not active

B1: Fv-CH3-CH3-Fv: naked bivalent anti-CD20 minibody, E. coli, SEQ ID NO.:94 (protein)
chain: DIQLTQSPAILSASPGEKVTMTCRASSSVSYIHWFQQKPGSSPKPWIYATSNLASGVPVRFSGSGSGTSYSLTISRVEAEDAATYYCQQWTSNPPTFGGGTKLEIGSTSGGGSGGGSGGGGSSVQLQQPGAELVKPGASVKMSCKASGYTFTSYNMHWVKQTPGRGLEWIGAIYPGNGDTSYNQKFKGKATLTADKSSSTAYMQLSSLTSEDSAVYYCARSTYYGGDWYFDVWGQGTTVTVSSGQPREPQVYTLPPSRDELTKNQVSLTCLVKGFYPSDIAVEWESNGQPENNYKTTPPVLDSDGSFFLYSKLTVDKSRWQQGNVFSCSVMHEALHNHYTQKSLSLSPGKGSTSGGGSGGGSGGGGSSGQPREPQVYTLPPSRDELTKNQVSLTCLVKGFYPSDIAVEWESNGQPENNYKTTPPVLDSDGSFFLYSKLTVDKSRWQQGNVFSCSVMHEALHNHYTQKSLSLSPGKVQLQQPGAELVKPGASVKMSCKASGYTFTSYNMHWVKQTPGRGLEWIGAIYPGNGDTSYNQKFKGKATLTADKSSSTAYMQLSSLTSEDSAVYYCARSTYYGGDWYFDVWGQGTTVTVSSGSTSGGGSGGGSGGGGSSDIQLTQSPAILSASPGEKVTMTCRASSSVSYIHWFQQKPGSSPKPWIYATSNLASGVPVFSGSGSGTSYSLTISRVEAEDAATYYCQQWTSNPPTFGGGTKLEI
**Q.** How did the “IC50, U937 2-48 h” value [2] turn out when B1 was run?
**A.** Not toxic

**Q.** What about the “IC50, Daudi 24 h” value ([3]; 24 h, Example 16) of the same molecule?
**A.** Not toxic

**Q.** And the “IC50, Daudi 46 h” value [3, 8]?
**A.** Not toxic

B2: scFv: naked single chain Fv anti-CD20 fragment with Rituxan CDRs, E. coli, SEQ ID NO.:92 (protein)
scFv: HHHHHHDIQLTQSPAILSASPGEKVTMTCRASSSVSYIHWFQQKPGSSPKPWIYATSNLASGVPVRFSGSGSGTSYSLTISRVEAEDAATYYCQQWTSNPPTFGGGTKLEIGSTSGGGSGGGSGGGGSSVQLQQPGAELVKPGASVKMSCKASGYTFTSYNMHWVKQTPGRGLEWIGAIYPGNGDTSYNQKFKGKATLTADKSSSTAYMQLSSLTSEDSAVYYCARSTYYGGDWYFDVWGQGTTVTVSS
**Q.** With B2 as the molecule, how does the “IC50, Daudi 2 h” value ([1]; E. coli expressed, Example 16) read?
**A.** Not toxic

**Q.** And the “IC50, Daudi 5 h” value ([1]; E. coli expressed, Example 16)?
**A.** Not toxic

**Q.** And the “IC50, U937 2-48 h” value [2]?
**A.** not killed; also recorded: Not toxic

**Q.** What about the “IC50, Daudi 24 h” value ([3]; 24 h, Example 16) of the same molecule?
**A.** Not toxic

**Q.** What about the “IC50, Daudi 46 h” value [3, 8] of the same molecule?
**A.** Not toxic

**Q.** And the “Caspase 3/7 levels compared to Staurosporine” value [6]?
**A.** did not detectably activate caspases
